What was measured:
Experiment in all cases: relative viability (nuclei count vs DMSO), 5 days (fraction); higher = more cells survive
Tipifarnib + Tozasertib = compound: Cn1cncc1[C@@](N)(c1ccc(Cl)cc1)c1ccc2c(c1)c(-c1cccc(Cl)c1)cc(=O)n2C [Tipifarnib] + Cc1cc(Nc2cc(N3CCN(C)CC3)nc(Sc3ccc(NC(=O)C4CC4)cc3)n2)n[nH]1 [Tozasertib] (partner 0.1 µM)
Outline: (§1)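 Five library-drug doses in √10 steps were combined with a fixed anchor-drug dose, or a single drug was given alone, by pin tool to lung cancer cell lines in 1536-well plates the day after seeding. Nuclei were stained and counted after 5 days. Relative viability is the nuclei count in treated wells over that in vehicle wells, taken as the median of duplicate plates.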

Tipifarnib + Foretinib = compound: Cn1cncc1[C@@](N)(c1ccc(Cl)cc1)c1ccc2c(c1)c(-c1cccc(Cl)c1)cc(=O)n2C [Tipifarnib] + COc1cc2c(Oc3ccc(NC(=O)C4(C(=O)Nc5ccc(F)cc5)CC4)cc3F)ccnc2cc1OCCCN1CCOCC1 [Foretinib] (partner 0.25 µM)
Outline: as §1

Tipifarnib + AZD7762 = compound: Cn1cncc1[C@@](N)(c1ccc(Cl)cc1)c1ccc2c(c1)c(-c1cccc(Cl)c1)cc(=O)n2C [Tipifarnib] + NC(=O)Nc1cc(-c2cccc(F)c2)sc1C(=O)N[C@H]1CCCNC1 [AZD7762] (partner 0.2 µM)
Outline: as §1

Tipifarnib + Luminespib = compound: Cn1cncc1[C@@](N)(c1ccc(Cl)cc1)c1ccc2c(c1)c(-c1cccc(Cl)c1)cc(=O)n2C [Tipifarnib] + CCNC(=O)c1noc(-c2cc(C(C)C)c(O)cc2O)c1-c1ccc(CN2CCOCC2)cc1 [Luminespib] (partner 0.01 µM)
Outline: as §1

Cell Line	relative viability (Tipifarnib + Tozasertib; first compound 0.01 µM)	relative viability (Tipifarnib + Tozasertib; first compound 0.03162 µM)	relative viability (Tipifarnib + Tozasertib; first compound 0.1 µM)	relative viability (Tipifarnib + Tozasertib; first compound 0.3162 µM)	relative viability (Tipifarnib + Tozasertib; first compound 1 µM)	relative viability (Tipifarnib + Foretinib; first compound 0.01 µM)	relative viability (Tipifarnib + Foretinib; first compound 0.03162 µM)	relative viability (Tipifarnib + Foretinib; first compound 0.1 µM)	relative viability (Tipifarnib + Foretinib; first compound 0.3162 µM)	relative viability (Tipifarnib + Foretinib; first compound 1 µM)	relative viability (Tipifarnib + AZD7762; first compound 0.01 µM)	relative viability (Tipifarnib + AZD7762; first compound 0.03162 µM)	relative viability (Tipifarnib + AZD7762; first compound 0.1 µM)	relative viability (Tipifarnib + AZD7762; first compound 0.3162 µM)	relative viability (Tipifarnib + AZD7762; first compound 1 µM)	relative viability (Tipifarnib + Luminespib; first compound 0.01 µM)	relative viability (Tipifarnib + Luminespib; first compound 0.03162 µM)	relative viability (Tipifarnib + Luminespib; first compound 0.1 µM)	relative viability (Tipifarnib + Luminespib; first compound 0.3162 µM)	relative viability (Tipifarnib + Luminespib; first compound 1 µM)
NCI-H838	0.254	0.286	0.248	0.214	0.252	1.01	0.805	0.848	0.695	0.75	1.01	0.965	0.905	0.836	0.851	0.41	0.266	0.212	0.21	0.211
NCI-H1355	0.474	0.408	0.321	0.349	0.329	1.12	0.94	0.855	0.694	0.734	0.833	0.707	0.517	0.473	0.478	0.76	0.61	0.525	0.532	0.433
NCI-H1395	0.659	0.681	0.567	0.498	0.556	0.986	0.956	0.814	0.705	0.77	0.363	0.367	0.398	0.375	0.329	0.776	0.72	0.711	0.446	0.452
NCI-H1437	0.398	0.358	0.381	0.319	0.353	1.32	1.29	1.38	0.955	1.29	1.12	1.14	1.1	1.06	1.11	1.25	1.17	1.15	0.913	1.07
NCI-H1651	0.927	0.649	0.615	0.575	0.711	0.833	0.79	0.85	0.717	0.831	0.536	0.467	0.524	0.44	0.363	0.921	0.934	0.797	0.684	0.753
NCI-H1666	0.593	0.507	0.526	0.447	0.517	0.923	0.888	0.866	0.873	0.748	0.892	0.807	0.794	0.661	0.554	1	0.92	0.94	0.842	0.806
NCI-H1734	0.294	0.26	0.247	0.215	0.239	0.902	0.832	0.729	0.458	0.487	0.537	0.46	0.403	0.352	0.257	0.198	0.147	0.171	0.168	0.164
NCI-H1755	0.741	0.584	0.639	0.518	0.569	0.88	0.889	0.908	0.849	0.456	0.411	0.453	0.416	0.365	0.395	0.516	0.475	0.516	0.545	0.201

From the supplement of paper PMC10307832
